Residues, ends and D or L forms follow the SMILES beside them.
Assay: Water solubility (statement)
Format: physicochemical

N[C@@H](CC(=O)O)C(=O)N[C@@H](CO)C(=O)N[C@@H](CO)C(=O)N[C@@H](CC(=O)O)C(=O)N[C@@H](CO)C(=O)N[C@@H](CO)C(=O)N[C@@H](CC(=O)O)C(=O)N[C@@H](CO)C(=O)N[C@@H](CO)C(=O)N[C@@H](CC(=O)O)C(=O)N[C@@H](CO)C(=O)N[C@@H](CO)C(=O)N[C@@H](CC(=O)O)C(=O)N[C@@H](CO)C(=O)N[C@@H](CO)C(=O)N[C@@H](CC(=O)O)C(=O)N[C@@H](CO)C(=O)N[C@@H](CO)C(=O)N[C@@H](CC(=O)O)C(=O)N[C@@H](CO)C(=O)N[C@@H](CO)C(=O)N[C@@H](CC(=O)O)C(=O)N[C@@H](CO)C(=O)N[C@@H](CO)C(=O)O [8DSS] (H-DSSDSSDSSDSSDSSDSSDSSDSS-OH; N-terminus and C-terminus assumed)
water solubility: water soluble

Reference: patent publication US20250318998A1, “REMINERALIZING RESTORATIVE COMPOSITIONS AND METHODS THEREOF” (ADA FORSYTH INSTITUTE, INC., priority 2023, published 2025)
